Assay results taken from ChEMBL document CHEMBL5532671, “Leucosceptrane Sesterterpenoids as a New Type of Natural Immunosuppressive Agents in Treating Sepsis” (J Med Chem, 2024).

Columns and labels:
Type in all cases: functional
T-cell [1] = assay: Inhibition of proliferation of C57BL/6 female mouse T-cells isolated from spleen at 20 uM relative to control; details: for inhibition at 20 µM: C57BL/6, T-cell
T-cell [2] = assay: Immunosuppressive activity in C57BL/6 female mouse T-cells isolated from spleen assessed as inhibition of LPS-induced IFN-gamma secretion at 20 uM treated for 48 hrs by ELISA based assay relative to control; details: for inhibition at 20 µM: C57BL/6, T-cell
T-cell [3] = assay: Immunosuppressive activity in C57BL/6 female mouse T-cells isolated from spleen assessed as inhibition of LPS-induced IFN-gamma secretion treated for 48 hrs by ELISA based assay; details: C57BL/6, T-cell

Compound	inhibition at 20 µM (T-cell [1]) [%]	inhibition at 20 µM (T-cell [2]) [%]	IC50 (T-cell [3]) [µM]	inhibition (T-cell [1]) [%]	inhibition (T-cell [2]) [%]
CC(C)=C[C@H]1O[C@@]2(C)C[C@H]([C@H]3NC(=O)C=C3C)O[C@]13[C@H]2C(=O)[C@H]1[C@@H](CC[C@@H]1C)[C@@H]3C	13.1	43.1			
CC(C)=CC(=O)[C@@]1(O)[C@@H](C)[C@@H]2CC[C@H](C)[C@H]2C(=O)[C@@]12O[C@@H](c1occc1C)C[C@@H]2C	< 10	34.6			
CC(C)=C[C@H]1O[C@@](C)(CC[C@@H]2OC(=O)C=C2C)C2=C1[C@@H](C)[C@@H]1CC[C@H](C)[C@]1(O)C2=O	< 10	18.7			
CC(C)=CC(=O)[C@@]1(O)[C@@H](C)[C@@H]2CC[C@H](C)[C@H]2C(=O)[C@]1(O)[C@@H](C)CC[C@@H]1OC(=O)C=C1C	< 10	32.1			
CC(C)=C[C@H]1O[C@@]2(C)C[C@H](c3occc3C)O[C@]13[C@H]2C(=O)[C@@]1(O)[C@@H](C)CC[C@H]1[C@@H]3C	18.6	57.7	22		
CC(C)=CC(=O)[C@@]1(O)[C@@H](C)[C@@H]2CC[C@H](C)[C@H]2C(=O)[C@]1(O)[C@@H](C)CC[C@]1(O)OC(=O)C=C1C	< 10	48.6			
CC(C)=C[C@H]1O[C@@](C)(C/C=C2\OC(=O)C=C2C)[C@@H]2C(=O)[C@]3(O)[C@@H](C)CC[C@H]3[C@H](C)[C@@]21O	< 10	45.4			
CC(C)=C[C@H]1O[C@@](C)(CCO)C2=C1[C@@H](C)[C@@H]1CC[C@H](C)[C@]1(O)C2=O	< 10	39.6			
CC(C)=CC(=O)[C@@]1(O)[C@@H](C)[C@@H]2CC[C@H](C)[C@H]2C(=O)[C@]1(O)[C@H](C)CCc1occc1C	27.9	73.6	5.59		
CC(C)=C[C@H]1O[C@@](C)(CC(=O)O)C2=C1[C@@H](C)[C@@H]1CC[C@H](C)[C@H]1C2=O	25	39.9			
CC(C)=C[C@H]1O[C@@](C)(CCc2occc2C)[C@@H]2C(=O)[C@H]3[C@@H](CC[C@@H]3C)[C@H](C)[C@@]21O	12.3	63.9	9.8		
CC(C)=C[C@H]1O[C@@](C)(CC[C@@H]2OC(=O)C=C2C)[C@@H]2C(=O)[C@@]3(O)[C@@H](C)CC[C@H]3[C@H](C)[C@@]21O	13.2	39.1			
CCC(=O)CC[C@H](C)[C@@]1(O)C(=O)[C@H]2[C@@H](CC[C@@H]2C)[C@H](C)[C@]1(O)C(=O)C=C(C)C	< 10	32.6			
CC(C)=C[C@H]1O[C@@](C)(CCC(=O)O)C2=C1[C@@H](C)[C@@H]1CC[C@H](C)[C@]1(O)C2=O	20.2	37.9			
CC(C)=C[C@H]1O[C@@](C)(CC[C@@]2(O)OC(=O)C=C2C)[C@@H]2C(=O)[C@@H]3[C@@H](CC[C@@H]3C)[C@H](C)[C@@]21O	15.3	47.5			
CC(C)=C[C@H]1O[C@@](C)(CC[C@@]2(O)OC(=O)C=C2C)C2=C1[C@@H](C)[C@@H]1CC[C@H](C)[C@]1(O)C2=O	< 10	22.4			
CC(C)=C[C@H]1O[C@@](C)(C/C=C2\NC(=O)C=C2C)[C@@H]2C(=O)[C@@]3(O)[C@@H](C)CC[C@H]3[C@H](C)[C@@]21O	< 10	44			
CC(C)=CC(=O)[C@@]1(O)[C@@H](C)[C@@H]2CC[C@H](C)[C@H]2C(=O)[C@@]12OC(=O)C[C@@H]2C	< 10	39.6			

Compound	inhibition at 20 µM (T-cell [1]) [%]	inhibition at 20 µM (T-cell [2]) [%]	IC50 (T-cell [3]) [µM]	inhibition (T-cell [1]) [%]	inhibition (T-cell [2]) [%]
CC(C)=C[C@H]1O[C@@](C)(C/C=C2/OC(=O)C=C2C)C2=C1[C@@H](C)[C@@H]1CC[C@H](C)[C@@]1(O)C2=O	< 10	32.5			
CC(C)=CC(=O)[C@@]1(O)[C@@H](C)[C@@H]2CC[C@H](C)[C@H]2C(=O)[C@]1(O)[C@H](C)CC[C@]1(O)OC(=O)C=C1C	11.7	41.3			
CC(C)=CC1O[C@@]2(C)CC[C@]3(OC(=O)C=C3C)O[C@]13[C@H]2C(=O)[C@@]1(O)[C@@H](C)CC[C@H]1[C@@H]3C (some centres undefined)	< 10	40.9			
CC(C)=CC(=O)[C@]12O[C@]3(CC[C@H](C)[C@@]1(O)C(=O)[C@H]1[C@@H](CC[C@@H]1C)[C@@H]2C)OC(=O)C=C3C	< 10	43.3			
CC(C)=C[C@H]1O[C@@](C)(CCc2occc2C)[C@@H]2C(=O)[C@@]3(O)[C@@H](C)CC[C@H]3[C@H](C)[C@@]21O	16.8	40.4			
CC(C)=C[C@H]1O[C@@](C)(CC=O)C2=C1[C@@H](C)[C@@H]1CC[C@H](C)[C@]1(O)C2=O	< 10	65.4	8.48		
CC(C)=C[C@H]1O[C@@](C)(CC[C@@H]2OC(=O)C=C2C)[C@@H]2C(=O)[C@@H]3[C@@H](CC[C@@H]3C)[C@H](C)[C@@]21O	25.4	37.1			
CC(C)=C[C@H]1O[C@@](C)(CCC(=O)O)C2=C1[C@@H](C)[C@@H]1CC[C@H](C)[C@H]1C2=O	18.2	45.9			
CC(C)=C[C@H]1O[C@@](C)(C/C=C2\NC(=O)C=C2C)[C@@H]2C(=O)[C@H]3[C@@H](CC[C@@H]3C)[C@H](C)[C@@]21O	< 10	16.9			
CC(C)=C[C@H]1O[C@@]2(C)C[C@H]([C@]3(O)OC(=O)C=C3C)O[C@]13[C@H]2C(=O)[C@@]1(O)[C@@H](C)CC[C@H]1[C@@H]3C	26	43.6			
CC(C)=C[C@H]1O[C@@]2(C)C[C@H](c3occc3C)O[C@]13[C@H]2C(=O)[C@H]1[C@@H](CC[C@@H]1C)[C@@H]3C	13.6	49.7			
CC(C)=C[C@H]1O[C@@](C)(CC[C@@H]2OC(=O)C=C2C)[C@@H]2C(=O)[C@@]3(OO)[C@@H](C)CC[C@H]3[C@H](C)[C@@]21O	11.8	29.9			
CC(C)=C[C@H]1O[C@@](C)(CC[C@@]2(O)OC(=O)C=C2C)C2=C1[C@@H](C)[C@@H]1CC[C@H](C)[C@@]1(O)C2=O	< 10	36.8			
Norleucosceptroid K				12.1	33.6
CC(C)=CC(=O)[C@@]1(O)[C@@H](C)[C@@H]2CC[C@H](C)[C@H]2C(=O)[C@]1(O)[C@@H](C)CCc1occc1C	< 10	41.6			
CC(C)=CC(=O)[C@]12O[C@@H]([C@]3(O)OC(=O)C=C3C)C[C@H](C)[C@@]1(O)C(=O)[C@H]1[C@@H](CC[C@@H]1C)[C@@H]2C	< 10	36.9			
CC(C)=C[C@H]1O[C@@](C)(CC[C@@H]2OC(=O)C=C2C)C2=C1[C@@H](C)[C@@H]1CC[C@H](C)[C@@H]1C2=O	< 10	31.3			
